In patent US11155560B2, “Substituted pyrazolo[1,5-a]pyrimidines for modulating CDK9 activity” (Kronos Bio, Inc., priority 2018, dated 2021) one finds IC50 data, which are given here for 75 molecules.

CDK9/cyclin T1, sequence (P50750 whole entry): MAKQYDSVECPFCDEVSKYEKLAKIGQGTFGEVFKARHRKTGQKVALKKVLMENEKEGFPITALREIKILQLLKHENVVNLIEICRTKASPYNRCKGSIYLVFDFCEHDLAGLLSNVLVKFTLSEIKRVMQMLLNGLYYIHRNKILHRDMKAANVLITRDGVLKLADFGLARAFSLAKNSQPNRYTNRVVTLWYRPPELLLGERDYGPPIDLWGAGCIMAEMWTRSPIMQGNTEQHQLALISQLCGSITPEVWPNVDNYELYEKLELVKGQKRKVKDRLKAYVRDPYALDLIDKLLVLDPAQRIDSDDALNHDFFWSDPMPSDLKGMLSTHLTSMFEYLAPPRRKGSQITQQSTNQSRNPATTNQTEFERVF
CDK9/cyclin T1, sequence (O60563 whole entry partner): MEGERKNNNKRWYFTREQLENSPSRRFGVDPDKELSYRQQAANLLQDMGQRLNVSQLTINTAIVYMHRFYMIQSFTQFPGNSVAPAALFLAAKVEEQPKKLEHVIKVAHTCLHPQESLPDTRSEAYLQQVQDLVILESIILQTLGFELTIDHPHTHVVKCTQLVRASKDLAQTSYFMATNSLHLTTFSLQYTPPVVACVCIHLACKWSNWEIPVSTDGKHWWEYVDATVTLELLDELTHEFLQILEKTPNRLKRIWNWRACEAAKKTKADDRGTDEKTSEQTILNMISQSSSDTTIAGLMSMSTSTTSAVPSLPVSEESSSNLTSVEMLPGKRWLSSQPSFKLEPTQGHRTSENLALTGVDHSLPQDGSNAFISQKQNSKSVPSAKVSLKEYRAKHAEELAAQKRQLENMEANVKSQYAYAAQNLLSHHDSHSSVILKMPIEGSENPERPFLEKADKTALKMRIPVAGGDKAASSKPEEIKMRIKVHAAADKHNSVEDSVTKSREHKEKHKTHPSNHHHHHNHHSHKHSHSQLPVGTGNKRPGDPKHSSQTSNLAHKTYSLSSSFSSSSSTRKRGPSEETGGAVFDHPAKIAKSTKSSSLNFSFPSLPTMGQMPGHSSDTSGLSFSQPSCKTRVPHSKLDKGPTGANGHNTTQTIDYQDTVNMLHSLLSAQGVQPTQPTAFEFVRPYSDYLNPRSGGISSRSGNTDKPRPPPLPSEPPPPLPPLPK

The assay addresses CDK9/cyclin T1 (Homo sapiens, UniProt P50750). Put plainly: CDK9/cyclin T1 kinase inhibition, LANCE assay. The assay is classed as biochemical. The settings on record: reaction time 60 minutes, 10 μM ATP, 10-dose IC50, compounds 35-126 (127-208 listed, method not stated), read-out: CDK9/cyclin T1 Potency Grade. The protocol: Exemplary compounds of the invention (35-126) were tested for inhibition of CDK9/cyclin T1 kinase. Using a LANCE assay (reaction time 60 minutes), the compounds were tested in 10-dose IC50 duplicate mode with a 3-fold serial dilution starting at 4.3 μM. […] Reactions were carried out at 10 μM ATP. Data was normalized to positive and negative controls and curve fits were analyzed with XLFIT5 as % inhibition vs. log [compound concentration] using a 4-parameter logistic model205. Fit=(A+((B−A)/(1+((C/x)^D)))); Res =(y-fit).
Turning to `N[C@@H]1CC[C@@H](Nc2cc(C3CCC3)nc3ccnn23)C1` [Compound 42], the IC50 fell in the range of 1 to 500 nM. Then `N[C@@H]1CC[C@@H](Nc2cc(C3CC3)nc3ccnn23)C1` [Compound 43], with 1 to 500 nM; and `CC(C)c1cc(N[C@@H]2CC[C@@H](NC=O)C2)n2nccc2n1` [Compound 46], with 1 to 500 nM. Turning to `CCc1cc(N[C@H]2CC[C@H](N)C2)n2nccc2n1` [Compound 47], the IC50 fell in the range of 1 to 500 nM.

Take `CC(C)c1cc(N[C@@H]2CC[C@@H](NC(=O)OCc3ccccc3)C2)n2nccc2n1` [Compound 50]: the IC50 lay in the range of 1 to 500 nM.

For the molecule `O=CN[C@@H]1CC[C@@H](Nc2cc(C3CC3)nc3ccnn23)C1` [Compound 51], the IC50 was in the range of 1 to 500 nM. For `CCC(C)c1cc(N[C@@H]2CC[C@@H](NC=O)C2)n2nccc2n1` (stereo partly drawn) [Compound 52], the IC50 fell in the range of 1 to 500 nM. The value for `CCC(CC)c1cc(N[C@H]2CC[C@H](NC(=O)c3cnc(C)cn3)C2)n2nccc2n1` [Compound 57] was 1 to 500 nM; that for `COCCN[C@@H]1CC[C@@H](Nc2cc(C(C)C)nc3ccnn23)C1` [Compound 59] was 1 to 500 nM.

For `CC(C)c1cc(N[C@@H]2CC[C@@H](N(O)C(N)=O)C2)n2nccc2n1` [Compound 60], the IC50 was in the range of 1 to 500 nM.

Consider `CCC(CC)c1cc(N[C@H]2CC[C@H](N(C)CCOC)C2)n2nccc2n1` [Compound 62], for which the IC50 lay in the range of 1 to 500 nM. Consider `CN/C(=N/C#N)N[C@@H]1CC[C@@H](Nc2cc(C(C)C)nc3ccnn23)C1` [Compound 63], for which the IC50 was 1 to 500 nM. Turning to `CC(C)c1cc(N[C@H]2CC[C@H](N)C2)n2ncc(C#N)c2n1` [Compound 64], the IC50 lay within 1 to 500 nM. For the molecule `CC(C)c1cc(N[C@@H]2CC[C@@H](NC(=O)OCc3ccccc3)C2)n2ncc(Cl)c2n1` [Compound 67], the IC50 fell in the range of 1 to 500 nM. Regarding `CC(C)OC(=O)N[C@@H]1CC[C@@H](Nc2cc(C(C)C)nc3c(Cl)cnn23)C1` [Compound 68], the IC50 was in the range of 501 to 1000 nM. Then `COc1cc(C)cc(-c2cc(N[C@H]3CC[C@H](N)C3)n3nccc3n2)c1` [Compound 70], with 1 to 500 nM; and `N[C@H]1CC[C@H](Nc2cc(Nc3ccc4ccccc4c3)nc3ccnn23)C1` [Compound 71], with 1 to 500 nM.

On to `N[C@H]1CC[C@H](Nc2cc(-c3cccc(Cl)c3)nc3ccnn23)C1` [Compound 75], for which the IC50 lay within 1 to 500 nM. In the case of `CC(C)Cc1cc(N[C@H]2CC[C@H](N)C2)n2ncc(Cl)c2n1` [Compound 76], the IC50 lay in the range of 1 to 500 nM. Consider `COc1cc(N[C@@H]2CC[C@@H](N)C2)n2nccc2n1` [Compound 77], for which the IC50 lay in the range of 501 to 1000 nM. As for `CCN(CC)c1cc(N[C@H]2CC[C@H](N)C2)n2nccc2n1` [Compound 79], the IC50 lay within 1 to 500 nM. As for `N[C@H]1CC[C@H](Nc2cc(Nc3cccc4ccccc34)nc3ccnn23)C1` [Compound 80], the IC50 was in the range of 1 to 500 nM.

`O=C(N[C@H]1CC[C@H](Nc2cc(C3CC3)nc3ccnn23)C1)OCc1ccccc1` [Compound 84]: the IC50 was over 1000 nM. Then `Cc1cnn2c(N[C@@H]3CC[C@@H](NC(=O)OC(C)C)C3)cc(C(C)C)nc12` [Compound 85], with 1 to 500 nM; and `CC(C)N(C)c1cc(N[C@H]2CC[C@H](N)C2)n2nccc2n1` [Compound 86], with 1 to 500 nM; and `Cc1cnn2c(N[C@@H]3CC[C@@H](NC(=O)OCc4ccccc4)C3)cc(C(C)C)nc12` [Compound 87], with 1 to 500 nM. As to `COCCNc1cc(N[C@H]2CC[C@H](N)C2)n2nccc2n1` [Compound 88], the IC50 lay in the range of 501 to 1000 nM.

Turning to `COC(=O)N[C@H]1CC[C@H](Nc2cc(C3CC3)nc3ccnn23)C1` [Compound 89], the IC50 was over 1000 nM. `CN(CCO)c1cc(N[C@H]2CC[C@H](N)C2)n2nccc2n1` [Compound 90]: the IC50 was 1 to 500 nM. Take `CCOc1cc(N[C@H]2CC[C@H](N)C2)n2nccc2n1` [Compound 91]: the IC50 was 501 to 1000 nM. For `CN(Cc1ccccc1)c1cc(N[C@H]2CC[C@H](N)C2)n2nccc2n1` [Compound 97], the IC50 lay in the range of 1 to 500 nM.

`CCNc1cc(N[C@H]2CC[C@H](N)C2)n2nccc2n1` [Compound 98]: the IC50 is 1 to 500 nM. For `CN1CCN(c2cc(N[C@H]3CC[C@H](N)C3)n3nccc3n2)CC1` [Compound 99], the IC50 was over 1000 nM. On to `Cc1cc(-c2cc(N[C@H]3CC[C@H](N)C3)n3nccc3n2)ccn1` [Compound 100], for which the IC50 was 1 to 500 nM.

Take `COc1cc(-c2cc(N[C@H]3CC[C@H](N)C3)n3nccc3n2)ccn1` [Compound 101]: the IC50 lay within 1 to 500 nM. In the case of `CN1CCN(c2cc(N[C@H]3CC[C@H](N)C3)n3nccc3n2)CC1=O` [Compound 102], the IC50 lay in the range of 1 to 500 nM. Take `Cc1ncc(-c2cc(N[C@H]3CC[C@H](N)C3)n3nccc3n2)cn1` [Compound 103]: the IC50 was 501 to 1000 nM.

Regarding `N[C@H]1CC[C@H](Nc2cc(-c3ccc4c(c3)OCO4)nc3c(Cl)cnn23)C1` [Compound 104], the IC50 was in the range of 1 to 500 nM.

`Cc1cc(C)cc(-c2cc(N[C@H]3CC[C@H](N)C3)n3nccc3n2)c1` [Compound 105]: the IC50 was in the range of 1 to 500 nM. Consider `N[C@H]1CC[C@H](Nc2cc(-c3ccc(F)cc3)nc3ccnn23)C1` [Compound 107], for which the IC50 lay within 1 to 500 nM. For `CC(C)c1ccc(-c2cc(N[C@H]3CC[C@H](N)C3)n3nccc3n2)cc1` [Compound 108], the IC50 fell in the range of 1 to 500 nM. In the case of `N[C@H]1CC[C@H](Nc2cc(C3=CCCCC3)nc3ccnn23)C1` [Compound 109], the IC50 was 1 to 500 nM.

Consider `N[C@H]1CC[C@H](Nc2cc(C3=CCOCC3)nc3ccnn23)C1` [Compound 110], for which the IC50 is 501 to 1000 nM. With `N[C@H]1CC[C@H](Nc2cc(-c3cccc(F)c3)nc3ccnn23)C1` [Compound 111], the IC50 lay in the range of 1 to 500 nM. As for `N[C@H]1CC[C@H](Nc2cc(C3=CCCOC3)nc3ccnn23)C1` [Compound 112], the IC50 lay within 1 to 500 nM.

Take `CC(C)(C#N)c1ccc(-c2cc(N[C@H]3CC[C@H](N)C3)n3nccc3n2)cc1` [Compound 113]: the IC50 lay within 1 to 500 nM. Take `N[C@H]1CC[C@H](Nc2cc(-c3ccc(C4CC4)cc3)nc3ccnn23)C1` [Compound 114]: the IC50 was in the range of 1 to 500 nM. For the molecule `N[C@H]1CC[C@H](Nc2cc(C3CCCCC3)nc3ccnn23)C1` [Compound 115], the IC50 fell in the range of 1 to 500 nM. With `Cn1ccc(-c2cc(N[C@H]3CC[C@H](N)C3)n3nccc3n2)n1` [Compound 116], the IC50 lay within 1 to 500 nM. Regarding `CC1(C)CC1c1cc(N[C@H]2CC[C@H](N)C2)n2nccc2n1` (stereo partly drawn) [Compound 117], the IC50 was 1 to 500 nM. Then `N[C@H]1CC[C@H](Nc2cc(C#Cc3ccccc3)nc3ccnn23)C1` [Compound 118], with 1 to 500 nM; and `N[C@H]1CC[C@H](Nc2cc(C#CC3CCCCC3)nc3ccnn23)C1` [Compound 119], with 1 to 500 nM; and `N[C@H]1CC[C@H](Nc2cc(C#CC3CC3)nc3ccnn23)C1` [Compound 120], with 1 to 500 nM.

`CC(C)c1cccc(-c2cc(N[C@H]3CC[C@H](N)C3)n3nccc3n2)c1` [Compound 121]: the IC50 was 1 to 500 nM. The value for `CC1CCC(c2cc(N[C@H]3CC[C@H](N)C3)n3nccc3n2)CC1` (stereo partly drawn) [Compound 122] was 1 to 500 nM; that for `CC1(c2cc(N[C@H]3CC[C@H](N)C3)n3nccc3n2)CC1` [Compound 123] was 1 to 500 nM. With `N[C@H]1CC[C@H](Nc2cc(C3CCOC3)nc3ccnn23)C1` (stereo partly drawn) [Compound 124], the IC50 lay in the range of 501 to 1000 nM. Consider `N[C@H]1CC[C@H](Nc2cc(C3CCC(F)(F)CC3)nc3ccnn23)C1` [Compound 125], for which the IC50 was in the range of 1 to 500 nM. With `N[C@H]1CC[C@H](Nc2cc(C3=CCOC3)nc3ccnn23)C1` [Compound 126], the IC50 lay in the range of 501 to 1000 nM. As to `CC(=O)Nc1cc(N[C@@H]2CC[C@@H](N)C2)n2ncc(Cl)c2n1` [Compound 127], the IC50 lay within 1 to 500 nM. The value for `CC(=O)Nc1cc(N[C@@H]2CC[C@@H](N)C2)n2nccc2n1` [Compound 128] was over 1000 nM; that for `N[C@@H]1CC[C@@H](Nc2cc(C3CCC3)nc3ccnn23)C1` [Compound 133] was 1 to 500 nM; that for `N[C@@H]1CC[C@@H](Nc2cc(C3CC3)nc3ccnn23)C1` [Compound 134] was 1 to 500 nM. Turning to `CC(C)c1cc(N[C@@H]2CCN(C)C2)n2nccc2n1` [Compound 135], the IC50 was over 1000 nM. `CC(C)c1cc(N[C@@H]2CC[C@@H](NC=O)C2)n2nccc2n1` [Compound 137]: the IC50 was 1 to 500 nM. `CCc1cc(N[C@H]2CC[C@H](N)C2)n2nccc2n1` [Compound 138]: the IC50 is 1 to 500 nM. As to `CC(C)OC(=O)N[C@@H]1CC[C@@H](Nc2cc(C(C)C)nc3ccnn23)C1` [Compound 140], the IC50 was in the range of 1 to 500 nM. Take `CC(C)c1cc(N[C@@H]2CC[C@@H](NC(=O)OCc3ccccc3)C2)n2nccc2n1` [Compound 141]: the IC50 is 1 to 500 nM. The value for `O=CN[C@@H]1CC[C@@H](Nc2cc(C3CC3)nc3ccnn23)C1` [Compound 142] was 1 to 500 nM; that for `CCC(C)c1cc(N[C@@H]2CC[C@@H](NC=O)C2)n2nccc2n1` (stereo partly drawn) [Compound 143] was 1 to 500 nM. Regarding `COC(=O)N[C@@H]1CC[C@@H](Nc2cc(C(C)C)nc3ccnn23)C1` [Compound 145], the IC50 was in the range of 1 to 500 nM. Turning to `CC(C)c1cc(N[C@@H]2CC[C@@H](N(C)C=O)C2)n2nccc2n1` [Compound 146], the IC50 lay within 1 to 500 nM. As for `CCC(CC)c1cc(N[C@H]2CC[C@H](NC(=O)c3cnc(C)cn3)C2)n2nccc2n1` [Compound 148], the IC50 is 1 to 500 nM. As for `CCC(CC)c1cc(N[C@H]2CC[C@H](Nc3ccccn3)C2)n2nccc2n1` [Compound 149], the IC50 was in the range of 1 to 500 nM. Turning to `COCCN[C@@H]1CC[C@@H](Nc2cc(C(C)C)nc3ccnn23)C1` [Compound 150], the IC50 is 1 to 500 nM.
